The values below come from patent publication US12421210B2, “Fused bicyclic heterocycles as therapeutic agents” (NEW YORK UNIVERSITY, priority 2018, dated 2025).

human NAMPT enzyme (His-hNAMPT), sequence (P43490 whole entry): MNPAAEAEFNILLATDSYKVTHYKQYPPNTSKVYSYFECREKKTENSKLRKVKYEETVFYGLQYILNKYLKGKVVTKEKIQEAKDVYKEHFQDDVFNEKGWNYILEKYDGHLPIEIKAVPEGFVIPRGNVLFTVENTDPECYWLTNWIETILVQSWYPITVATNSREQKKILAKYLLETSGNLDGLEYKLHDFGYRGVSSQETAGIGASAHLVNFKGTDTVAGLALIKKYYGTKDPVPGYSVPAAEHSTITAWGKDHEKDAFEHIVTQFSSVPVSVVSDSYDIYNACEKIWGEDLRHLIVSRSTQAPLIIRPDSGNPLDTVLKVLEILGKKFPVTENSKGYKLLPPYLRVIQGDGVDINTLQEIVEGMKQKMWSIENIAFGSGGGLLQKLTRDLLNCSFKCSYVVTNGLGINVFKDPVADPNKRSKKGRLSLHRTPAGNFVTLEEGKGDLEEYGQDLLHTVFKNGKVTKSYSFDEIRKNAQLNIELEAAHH

The first assay concerns the target human NAMPT enzyme (His-hNAMPT) (Homo sapiens (Human), UniProt P43490). Briefly: NAMPT enzymatic inhibition assay (fluorescence, NADH product). The format is biochemical. To be noted: [BPS]; read-out: NAMPT IC50 (μM) [BPS].
For orientation: IC50 means the concentration that gives 50% inhibition. As to `Nc1ccc(/C=C/C(=O)NCC[C@@H]2[C@H]3CN(C(=O)c4ccc(F)cc4)C[C@@H]23)cn1` [Example 86, (E)-3-(6-aminopyridin-3-yl)-N-(2-((1R,5S,6s)-3-(4-fluorobenzoyl)-3-azabicyclo[3.1.0]hexan-6-yl)ethyl)acrylamide], the IC50 lay in the range of 0.01 to 0.49 µM.

As to `Cc1nc(C)c(C(=O)N2C[C@@H]3[C@@H](CCNC(=O)/C=C/c4ccc(N)nc4)[C@@H]3C2)o1` [Example 87, (E)-3-(6-aminopyridin-3-yl)-N-(2-((1R,5S,6s)-3-(2,4-dimethyloxazole-5-carbonyl)-3-azabicyclo[3.1.0]hexan-6-yl)ethyl)acrylamide], the half-maximal inhibitory concentration (IC50) was 0.01 to 0.49 µM. Still for that read-out and setting: the result for `Cc1nn(C)c(C)c1C(=O)N1C[C@@H]2[C@@H](CCNC(=O)/C=C/c3ccc(N)nc3)[C@@H]2C1` [Example 88, (E)-3-(6-aminopyridin-3-yl)-N-(2-((1R,5S,6s)-3-(1,3,5-trimethyl-1H-pyrazole-4-carbonyl)-3-azabicyclo[3.1.0]hexan-6-yl)ethyl)acrylamide] reads 0.01 to 0.49 µM; that for `Nc1ccc(/C=C/C(=O)NCC[C@@H]2[C@H]3CN(C(=O)c4cccc(F)c4)C[C@@H]23)cn1` [Example 89, (E)-3-(6-aminopyridin-3-yl)-N-(2-((1R,5S,6s)-3-(3-fluorobenzoyl)-3-azabicyclo[3.1.0]hexan-6-yl)ethyl)acrylamide], 0.01 to 0.49 µM; that for `Nc1ccc(/C=C/C(=O)NCC[C@@H]2[C@H]3CN(C(=O)c4ccc(OC(F)F)cc4)C[C@@H]23)cn1` [Example 90, (E)-3-(6-aminopyridin-3-yl)-N-(2-((1R,5S,6s)-3-(4-(difluoromethoxy)benzoyl)-3-azabicyclo[3.1.0]hexan-6-yl)ethyl)acrylamide], 0.01 to 0.49 µM. For the molecule `Nc1ccc(/C=C/C(=O)NCC[C@@H]2[C@H]3CN(C(=O)c4cccc(OC(F)F)c4)C[C@@H]23)cn1` [Example 91, (E)-3-(6-aminopyridin-3-yl)-N-(2-((1R,5S,6s)-3-(3-(difluoromethoxy)benzoyl)-3-azabicyclo[3.1.0]hexan-6-yl)ethyl)acrylamide], the IC50 fell in the range of 0.01 to 0.49 µM. The same measure, in the same setting: with `Cc1ccncc1C(=O)N1C[C@@H]2[C@@H](CCNC(=O)/C=C/c3ccc(N)nc3)[C@@H]2C1` [Example 92, (E)-3-(6-aminopyridin-3-yl)-N-(2-((1R,5S,6s)-3-(4-methylnicotinoyl)-3-azabicyclo[3.1.0]hexan-6-yl)ethyl)acrylamide] the figure was 0.01 to 0.49 µM; with `CN1CCC(c2ccc(C(=O)N3C[C@@H]4[C@@H](CCNC(=O)/C=C/c5ccc(N)nc5)[C@@H]4C3)cc2)CC1` [Example 93, (E)-3-(6-aminopyridin-3-yl)-N-(2-((1R,5S,6s)-3-(4-(1-methylpiperidin-4-yl)benzoyl)-3-azabicyclo[3.1.0]hexan-6-yl)ethyl)acrylamide], 0.01 to 0.49 µM. On the same count and under the same terms, with `Nc1ccc(/C=C/C(=O)NCC[C@@H]2[C@H]3CN(C(=O)CC4CCOCC4)C[C@@H]23)cn1` [Example 94, (E)-3-(6-aminopyridin-3-yl)-N-(2-((1R,5S,6s)-3-(2-(tetrahydro-2H-pyran-4-yl)acetyl)-3-azabicyclo[3.1.0]hexan-6-yl)ethyl)acrylamide] the figure was 0.01 to 0.49 µM; with `Nc1ccc(/C=C/C(=O)NCC[C@@H]2[C@H]3CN(C(=O)C4CCOCC4)C[C@@H]23)cn1` [Example 95, (E)-3-(6-aminopyridin-3-yl)-N-(2-((1R,5S,6s)-3-(tetrahydro-2H-pyran-4-carbonyl)-3-azabicyclo[3.1.0]hexan-6-yl)ethyl)acrylamide], 0.01 to 0.49 µM. On the same count and under the same terms, with `CC(C)(C)CNC(=O)N1C[C@@H]2[C@@H](CCNC(=O)/C=C/c3ccc(N)nc3)[C@@H]2C1` [Example 96, (1R,5S,6s)-6-(2-((E)-3-(6-aminopyridin-3-yl)acrylamido)ethyl)-N-neopentyl-3-azabicyclo[3.1.0]hexane-3-carboxamide] the figure was 0.01 to 0.49 µM; with `O=C(NCC[C@@H]1[C@H]2CN(C(=O)c3ccc(F)cc3)C[C@@H]12)c1cc2ccncc2o1` [Example 97, N-(2-((1R,5S,6s)-3-(4-fluorobenzoyl)-3-azabicyclo[3.1.0]hexan-6-yl)ethyl)furo[2,3-c]pyridine-2-carboxamide], 0.01 to 0.49 µM; with `Cc1nc(C)c(C(=O)N2C[C@@H]3[C@@H](CCNC(=O)c4cc5ccncc5o4)[C@@H]3C2)o1` [Example 98, N-(2-((1R,5S,6s)-3-(2,4-dimethyloxazole-5-carbonyl)-3-azabicyclo[3.1.0]hexan-6-yl)ethyl)furo[2,3-c]pyridine-2-carboxamide], 0.01 to 0.49 µM. As for `O=C(NCC[C@@H]1[C@H]2CN(C(=O)CC3CCOCC3)C[C@@H]12)c1cc2ccncc2o1` [Example 99, N-(2-((1R,5S,6s)-3-(2-(tetrahydro-2H-pyran-4-yl)acetyl)-3-azabicyclo[3.1.0]hexan-6-yl)ethyl)furo[2,3-c]pyridine-2-carboxamide], the IC50 was in the range of 0.01 to 0.49 µM.

As for `O=C(NCC[C@@H]1[C@H]2CN(C(=O)C3CCOCC3)C[C@@H]12)c1cc2ccncc2o1` [Example 100, N-(2-((1R,5S,6s)-3-(tetrahydro-2H-pyran-4-carbonyl)-3-azabicyclo[3.1.0]hexan-6-yl)ethyl)furo[2,3-c]pyridine-2-carboxamide], the half-inhibitory concentration (IC50) fell in the range of 0.5 to 0.99 µM.

For the molecule `O=C(NCC[C@@H]1[C@H]2CN(C(=O)CC3CCOCC3)C[C@@H]12)c1ccc2nccn2c1` [Example 101, N-(2-((1R,5S,6s)-3-(2-(tetrahydro-2H-pyran-4-yl)acetyl)-3-azabicyclo[3.1.0]hexan-6-yl)ethyl)imidazo[1,2-a]pyridine-6-carboxamide], the IC50 is 0.01 to 0.49 µM. As to `O=C(NCC[C@@H]1[C@H]2CN(C(=O)c3ccc(F)cc3)C[C@@H]12)c1ccc2nccn2c1` [Example 102, N-(2-((1R,5S,6s)-3-(4-fluorobenzoyl)-3-azabicyclo[3.1.0]hexan-6-yl)ethyl)imidazo[1,2-a]pyridine-6-carboxamide], the IC50 fell in the range of 0.01 to 0.49 µM. Still for that read-out and setting: the result for `Cc1nc(C)c(C(=O)N2C[C@@H]3[C@@H](CCNC(=O)c4ccc5nccn5c4)[C@@H]3C2)o1` [Example 103, N-(2-((1R,5S,6s)-3-(2,4-dimethyloxazole-5-carbonyl)-3-azabicyclo[3.1.0]hexan-6-yl)ethyl)imidazo[1,2-a]pyridine-6-carboxamide] reads 0.01 to 0.49 µM.

For `O=C(/C=C/c1cccnc1)NCC[C@@H]1[C@H]2CN(C(=O)CC3CCOCC3)C[C@@H]12` [Example 104], the IC50 lay in the range of 0.01 to 0.49 µM. The same measure, in the same setting: with `Cc1nc(C)c(C(=O)N2C[C@@H]3[C@@H](CCNC(=O)/C=C/c4cccnc4)[C@@H]3C2)o1` [Example 105, (E)-N-(2-((1R,5S,6s)-3-(2,4-dimethyloxazole-5-carbonyl)-3-azabicyclo[3.1.0]hexan-6-yl)ethyl)-3-(pyridin-3-yl)acrylamide] the figure was 0.01 to 0.49 µM. Same read-out and setting: the result for `O=C(NCC[C@@H]1[C@H]2CN(C(=O)CC3CCOCC3)C[C@@H]12)c1cnc2nccn2c1` [Example 106, N-(2-((1R,5S,6s)-3-(2-(tetrahydro-2H-pyran-4-yl)acetyl)-3-azabicyclo[3.1.0]hexan-6-yl)ethyl)imidazo[1,2-a]pyrimidine-6-carboxamide] reads 0.01 to 0.49 µM. Still for that read-out and setting: the result for `O=C(NCC[C@@H]1[C@H]2CN(C(=O)c3ccc(F)cc3)C[C@@H]12)c1cnc2nccn2c1` [Example 107, N-(2-((1R,5S,6s)-3-(4-fluorobenzoyl)-3-azabicyclo[3.1.0]hexan-6-yl)ethyl)imidazo[1,2-a]pyrimidine-6-carboxamide] reads 0.01 to 0.49 µM. Consider `Cc1nc(C)c(C(=O)N2C[C@@H]3[C@@H](CCNC(=O)c4cnc5nccn5c4)[C@@H]3C2)o1` [Example 108, N-(2-((1R,5S,6s)-3-(2,4-dimethyloxazole-5-carbonyl)-3-azabicyclo[3.1.0]hexan-6-yl)ethyl)imidazo[1,2-a]pyrimidine-6-carboxamide], for which the 50% inhibitory concentration (IC50) fell in the range of 0.01 to 0.49 µM. Still for that read-out and setting: with `O=C(NCC[C@@H]1[C@H]2CN(C(=O)CC3CCOCC3)C[C@@H]12)c1cc(-c2cccnc2)on1` [Example 109, 5-(pyridin-3-yl)-N-(2-((1R,5S,6s)-3-(2-(tetrahydro-2H-pyran-4-yl)acetyl)-3-azabicyclo[3.1.0]hexan-6-yl)ethyl)isoxazole-3-carboxamide] the figure was 0.01 to 0.49 µM; with `O=C(NCC[C@@H]1[C@H]2CN(C(=O)c3ccc(F)cc3)C[C@@H]12)c1cc(-c2cccnc2)on1` [Example 110, N-(2-((1R,5S,6s)-3-(4-fluorobenzoyl)-3-azabicyclo[3.1.0]hexan-6-yl)ethyl)-5-(pyridin-3-yl)isoxazole-3-carboxamide], 0.01 to 0.49 µM. On the same count and under the same terms, the result for `Cc1nc(C)c(C(=O)N2C[C@@H]3[C@@H](CCNC(=O)c4cc(-c5cccnc5)on4)[C@@H]3C2)o1` [Example 111, N-(2-((1R,5S,6s)-3-(2,4-dimethyloxazole-5-carbonyl)-3-azabicyclo[3.1.0]hexan-6-yl)ethyl)-5-(pyridin-3-yl)isoxazole-3-carboxamide] reads 0.01 to 0.49 µM; that for `O=C(NCC[C@@H]1[C@H]2CN(C(=O)CC3CCOCC3)C[C@@H]12)c1cc2cnccc2[nH]1` [Example 112, N-(2-((1R,5S,6s)-3-(2-(tetrahydro-2H-pyran-4-yl)acetyl)-3-azabicyclo[3.1.0]hexan-6-yl)ethyl)-1H-pyrrolo[3,2-c]pyridine-2-carboxamide], 0.01 to 0.49 µM; that for `Cc1nc(C)c(C(=O)N2C[C@@H]3[C@@H](CCNC(=O)c4cc5cnccc5[nH]4)[C@@H]3C2)o1` [Example 113, N-(2-((1R,5S,6s)-3-(2,4-dimethyloxazole-5-carbonyl)-3-azabicyclo[3.1.0]hexan-6-yl)ethyl)-1H-pyrrolo[3,2-c]pyridine-2-carboxamide], 0.01 to 0.49 µM.

The same assay, now with this note: [HDB]; read-out: NAMPT IC50 (μM) [HDB].
Take `O=C(NCC[C@@H]1[C@H]2CN(C(=O)OC3CCOCC3)C[C@@H]12)c1cc2ccncc2s1` [Example 85, (1R,5S,6s)-tetrahydro-2H-pyran-4-yl 6-(2-(thieno[2,3-c]pyridine-2-carboxamido)ethyl)-3-azabicyclo[3.1.0]hexane-3-carboxylate]: the concentration for half-maximal inhibition (IC50) was 0.01 to 0.49 µM. The same measure, in the same setting: with `Cc1nc(C)c(C(=O)N2C[C@@H]3[C@@H](CCNC(=O)c4cc5ccncc5s4)[C@@H]3C2)o1` [Example 114, N-(2-((1R,5S,6s)-3-(2,4-dimethyloxazole-5-carbonyl)-3-azabicyclo[3.1.0]hexan-6-yl)ethyl)thieno[2,3-c]pyridine-2-carboxamide] the figure was 0.01 to 0.49 µM.
